{"source": "patent US9284297B2", "about": "“Halofuginone analogs for inhibition of tRNA synthetases and uses thereof” (President and Fellows of Harvard College, priority 2008, dated 2016)", "key": {"STAT3 phosphorylation": {"system": "STAT3 phosphorylation", "experiment": "Kinetics of STAT3 phosphorylation in developing Th17 cells", "type": "cell-based, murine", "conditions": "TGFβ plus IL-6; 5 nM or 10 nM HF", "description": "FIG. 6. […] FIG. 6A is a set of representative histograms displaying the kinetics of STAT3 phosphorylation in developing Th17 cells treated with or without halofuginone. Resting naïve T cells (grey, shaded peak), T cells activated in the presence of TGFβ plus IL-6 (TGFβ/IL-6) treated with 10 nM MAZ1310 (light gray trace), 5 nM HF (medium gray trace), or 10 nM HF (dark gray trace). T cells were fixed at the indicated times and intracellular phospho-STAT3 staining was performed.\n(§1) Th17 differentiation is synergistically regulated by TGFβ and the pro-inflammatory cytokines IL-6 and IL-21. […] Since STAT3 is the major transducer of IL-6 and IL-21 signaling, the kinetics of STAT3 phosphorylation in HF-treated T cells were examined."}, "[1]": {"conditions": "in vivo; cited from earlier work"}, "[2]": {"system": "eIF2α phosphorylation and AAR-associated transcripts (Asns, Gpt2, eIF4Ebp1) in splenocytes", "experiment": "AAR activation in splenocytes of HF-injected mice", "type": "in vivo", "conditions": "i.p. 2.5 mg HF; spleens harvested 6 hours post injection", "description": "FIG. 18F, left panel, depicts western blot analysis of protein from cells of wild-type mice injected i.p. with vehicle (DMSO) or 2.5 mg HF. Spleens were harvested 6 hours post injection, red blood cells were removed by NH4Cl lysis buffer and immunoblotting for phosphorylated or total eIF2a was performed on whole cell extracts. FIG. 20F, right panel is a graph depicting levels of AAR-associated gene expression (Asns, Gpt2, eIF4Ebp1) analyzed by quantitative real-time PCR using cDNA from splenocytes of mice treated with DMSO or HF as above. Expression of AAR-associated transcripts were normalized to Hprt levels and data are presented as mean relative expression from duplicate samples±SD. All data represent 2-3 similar experiments.\nHF-mediated protection from adjuvant-driven EAE was accompanied by a reduction in T cell-derived IL-17-expression, both in peripheral lymph nodes prior to disease onset and in CNS tissue during active disease (FIG. 18E), as well as an overall reduction in CD4^+ T cell infiltrates into the CNS (FIG. 19)."}, "[3]": {"system": "Th17 differentiation of CD4+ CD25− T cells", "experiment": "Th17 differentiation of CD4+ CD25− T cells (IL-17+ IFNγ− cells, intracellular cytokine staining)"}, "[4]": {"system": "eIF2α phosphorylation and ATF4 protein levels in CD4+ CD25− T cells", "experiment": "Amino acid response (AAR) pathway activation in T cells, western blot", "type": "cell-based, mice", "description": "CD4+ CD25− T cells purified from wild type of GCN2−/− mice were activated through TCR for 4 hours in the presence of halofuginone (10 nM) or 9 (MAZ1310, 10 nM). Whole cell lysates were analyzed by SDS PAGE/Western blot and antibodies indicated.\nNaïve T-cells were treated to stimulate the T-cell receptor (TCR) in the presence or absence of 10 nM halofuginone in the presence of 1 mM added amino acid, and then assayed for eIF2alpha activity phosphorylation by SDS PAGE/Western blot.\nHF induced detectable eIF2α phosphorylation at 2.5 nM, and this effect plateaued at 5-10 nM HF (FIG. 7D). […] AAR activation was a general consequence of HF treatment; HF induced eIF2α phosphorylation, not only in T cells activated in Th17-priming conditions, but also in resting naïve T cells and T cells activated in ThN, Th1, Th2, and iTreg polarizing conditions (FIG. 7F). […] Thus, the rapid activation of the AAR pathway by HF could underlie both its selective inhibition of Th17 differentiation and its effects on fibroblasts (Pines and Nagler, Gen. Pharmacol. 30:445, 1998).\nTo delineate the stress response pathway activated by HF, the effects of amino acid starvation with those of tunicamycin (an inducer of ER stress) or HF treatment during T cell activation were compared.\nWhole cell lysates were generated from T cells activated for the indicated times. For STAT3 and Smad2/3 western blots cells were harvested, washed in PBS and lysed in 50 mM Tris, pH 7.4, 0.1% SDS, 1% Triton-X100, 140 mM NaCl, 1 mM EDTA, 1 mM EGTA supplemented with protease inhibitors tablets (Roche, Germany), 1 mM NaF and 1 mM Na3VO4. For eIF2α and ATF4 western blots, cells were harvested as above and lysed in 50 mM Tris, pH 7.4, 2% SDS, 20% glycerol and 2 mM EDTA supplemented with protease and phosphatase inhibitors as above. All lysates were cleared via centrifugation and 15-30 μg of protein was resolved by SDS-PAGE. Protein was transferred to nitrocellulose membranes, blocked and blotted using specific antibodies. Antibodies used for western blot analysis were anti-phospho-Smad2, anti-STAT3 (pY705), anti-STAT3, anti-eIF2α^pS51, anti-eIF2α (all from Cell Signaling Technology, Danvers, Mass.). Anti-ATF4/CREB2 and anti-β-actin were purchased from Santa Cruz Biotechnology (Santa Cruz, Calif.). HRP-conjugated secondary antibodies were all purchased from Sigma, with the exception of HRP-conjugated anti-armenian hamster antibody (Jackson Immunoresearch, West Grove, Pa.)."}, "[5]": {"system": "TGFβ-induced Smad phosphorylation and lymphocyte responses to TGFβ", "experiment": "TGFβ signaling in T and B cells", "type": "cell-based, murine", "conditions": "low dose HF; 10 μM SB-431542", "description": "FIG. 10. […] FIG. 10A is a set of FACS analyses of CD4^+ CD25^− T cells activated in Th1 or Th2 polarizing conditions, either in the presence or absence of TGFβ. DMSO, 10 nM HF, 10 nM MAZ1310, or 10 μM SB-431542 added as indicated at the time of activation. Intracellular cytokine staining was performed on expanded T cells on day 5.\nFIG. 10D depicts western blot analyses of purified CD4^+ CD25^− T cells treated with DMSO, 40 nM MAZ1310, titrating concentrations of HF (2.5-40 nM) or 10 μM SB-431542 for 30 minutes in complete medium supplemented with 0.1% fetal calf serum. T cells were then activated in the presence or absence of 3 ng/ml TGFβ. Whole cell extracts were prepared after 1 hour of stimulation and western blot analyses were performed using the indicated antibodies.\nas §1\nWhole cell lysates were generated from T cells activated for the indicated times. For STAT3 and Smad2/3 western blots cells were harvested, washed in PBS and lysed in 50 mM Tris, pH 7.4, 0.1% SDS, 1% Triton-X100, 140 mM NaCl, 1 mM EDTA, 1 mM EGTA supplemented with protease inhibitors tablets (Roche, Germany), 1 mM NaF and 1 mM Na3VO4. […]"}}, "note": "pIC50: −log10 of the molar value.", "data": [{"molecule": "O=C(CC1NCCCC1O)Cn1cnc2cc(Br)c(Cl)cc2c1=O", "note": "(stereo not shown) [Compound 1, 7-bromo-6-chloro-3-[3-(3-hydroxy-2-piperidinyl)-2-oxopropyl]-4(3H)-quinazolinone]", "values": [{"measurement": "STAT3 phosphorylation", "setting": "STAT3 phosphorylation", "value": "decreased the maintenance of STAT3 phosphorylation, beginning around 12 hours post activation"}, {"measurement": "toxicity in humans", "setting": "[1]", "value": "some toxicity in humans, such as nausea, vomiting, and fatigue, and possibly bleeding complications"}, {"measurement": "eIF2α phosphorylation and AAR-associated transcripts in splenocytes ex vivo", "setting": "[2]", "value": "increased eIF2α phosphorylation and expression of AAR-associated transcripts"}, {"measurement": "rescue of inhibited Th17 differentiation by added amino acids", "setting": "[3]; 10 nM halofuginone, 1 mM of the indicated amino acids", "value": "Proline, and no other added amino acid, rescues the inhibition of Th17 differentiation"}, {"measurement": "pIC50", "setting": "[3]; Mus musculus, T-cell, 96 h, read-out: IC50, Th17 differentiation", "value": 8.44}, {"measurement": "time to maximum eIF2α phosphorylation", "setting": "[4]; 10 nM HF", "value": "≤ 2", "unit": "h"}, {"measurement": "rescue of eIF2alpha phosphorylation by added amino acid", "setting": "[4]; 10 nM halofuginone, 1 mM added amino acid", "value": "blocked by added proline"}, {"measurement": "phosphorylation of Ser51 of eIF2alpha, GCN2 dependence", "setting": "[4]; 10 nM, 4 hours, T cells from wild type or GCN2−/− mice", "value": "leads to phosphorylation of Ser51 of eif2alpha only in wild type cells and not in GCN2−/− cells"}, {"measurement": "concentration at which eIF2α phosphorylation plateaued", "setting": "[4]; 4 hours-post TCR activation", "value": "5 to 10", "unit": "nM"}, {"measurement": "concentration inducing detectable eIF2α phosphorylation", "setting": "[4]; 4 hours-post TCR activation", "value": 2.5, "unit": "nM"}, {"measurement": "concentration with highest ATF4 expression levels", "setting": "[4]; 4 hours-post TCR activation", "value": "5 to 10", "unit": "nM"}, {"measurement": "stress response pathway: eIF2α phosphorylation, ATF4 expression, Xbp-1 splicing", "setting": "[4]; 4 hours, 10 nM HF or 1 μg/ml tunicamycin", "value": "inducing eIF2α phosphorylation without promoting Xbp-1 splicing"}, {"measurement": "effect on TGFβ-induced Smad phosphorylation and other lymphocyte responses to TGFβ", "setting": "[5]", "value": "inhibited neither TGFβ-induced Smad phosphorylation nor a variety of other lymphocyte responses to TGFβ"}]}]}
